Measurements from patent US11427546B2, “Form of isoquinoline sulfonamide” (D. WESTERN THERAPEUTICS INSTITUTE, INC., priority 2018, dated 2022).
Entries after “also recorded” stand apart in the source; their conditions may differ. Structures can show the parent of a compound that is named as a salt.

How the values were obtained:
Format in all cases: physicochemical
[1] = Water solubility comparative test; conditions: for transparency of aqueous solution by visual observation: about 100 mg in 2 mL purified water (5% aqueous solution), room temperature; for precipitate in aqueous solution: about 100 mg in 2 mL purified water, 1 day later
Experimental: Water Solubility Comparative Test
About 100 mg of each of the compound (1) of Reference Example 1 and the crystal of the compound (2) of the present invention was weighed out in a glass vial, 2 mL of purified water was added, and the mixture was vigorously shaken in an airtight state. After being allowed to stand until the liquid surface fluctuation ceased, the aqueous solution was examined for transparency by visual observation at room temperature.

[2] = Moisture absorption stability comparative test in the ambient atmosphere; conditions: ambient atmosphere 25° C.-28° C./67%-83% RH; for appearance (moisture absorption): Day 7
Experimental: Moisture Absorption Stability Comparative Test in the Ambient Atmosphere
About 100 mg of each of the compound (1) obtained in Reference Example 1 and the compound (2) of the present invention obtained in an Example was weighed out in a plastic container and allowed to stand in the ambient atmosphere (25° C.-28° C./67%-83% RH), while minimizing the influence of wind pressure, foreign matter entry, and the like from above and all directions, for 7 days. On Day 0 and Day 7, samples were weighed and examined for appearance.

[3] = Heat stability comparative test; conditions: 70° C., airtight glass vial
Experimental: Heat Stability Comparative Test
About 20 mg of each of the compound (1) of Reference Example 1 and the crystal of the compound (2) of the present invention obtained in an Example was weighed out in a glass vial and stored in a thermostat chamber kept at 70° C. in an airtight state (NA-100N Incubator from NISSIN) for 14 days. On Day 0, Day 7, and Day 14, compound (1) and the compound (2) of the present invention were examined for appearance and purity (HPLC).

[4] = Moisture absorption stability comparative test at 50° C./70% RH
Experimental: Moisture Absorption Stability Comparative Test at 50° C./70% RH
A 100-mg weight of each of the crystals of compounds (3) and (4) obtained in Reference Examples 2 and 3, respectively, and the compound (2) of the present invention obtained in an Example was weighed out in a plastic container and allowed to stand under 50° C./70% RH conditions in a thermo-hygrostat chamber (IH400 from Yamato Scientific Co., Ltd.).

| SMILES | transparency of aqueous solution by visual observation ([1]; monohydrochloride) | precipitate in aqueous solution [1] | appearance (moisture absorption) [2] | appearance / property (heat stability) ([3]; Day 7, monohydrochloride) | appearance change due to moisture absorption ([4]; after 1 hour of standing) | weight increase ([4]; after 1 hour of standing, 100 mg solid) | change (appearance, weight) after prolonged standing ([4]; after 3 days of standing) | transparency of aqueous solution by visual observation [1] | percent increase in weight ([2]; Day 7, about 100 mg solid) | appearance and purity (HPLC) (heat stability) ([3]; Day 14) |
| --- | --- | --- | --- | --- | --- | --- | --- | --- | --- | --- |
| C[C@H](CNC[C@@](C)(O)c1ccccc1)NS(=O)(=O)c1ccc2cnccc2c1.Cl [compound (1), N—[(R)-1-{(S)-2-hydroxy-2-phenylpropylamino}propan-2-yl]isoquinoline-6-sulfonamide monohydrochloride, reference compound] | translucent; also recorded: translucent and had not dissolved completely | a precipitate was found | evident moisture absorption phenomenon | marked property degradation; also recorded: unstable with an evident change in appearance |  |  |  |  |  |  |
| C[C@H](CNC[C@@](C)(O)c1ccccc1)NS(=O)(=O)c1ccc2cnccc2c1 [compound (2), N—[(R)-1-{(S)-2-hydroxy-2-phenylpropylamino}propan-2-yl]isoquinoline-6-sulfonamide dihydrochloride anhydride] |  | no precipitate was found | no weight gain or appearance change |  | no appearance change | no appearance change nor weight gain; also recorded: did not at all exhibit any weight change | no change was observed | extremely clear, showing complete dissolution; also recorded: colorless and clear | did not at all exhibit any weight change; also recorded: no weight gain | stable, with no change in appearance nor decomposition; also recorded: stable |
| C[C@H](CNCCc1ccccc1)NS(=O)(=O)c1ccc2cnccc2c1.Cl.Cl [compound (3), (R)—N-{1-(phenetylamino)propan-2-yl}isoquinoline-6-sulfonamide dihydrochloride, reference compound] |  |  |  |  | marked appearance change due to moisture absorption |  |  |  |  |  |
| C[C@H](CNC[C@H](C)c1ccccc1)NS(=O)(=O)c1ccc2cnccc2c1.Cl.Cl [compound (4), N—[(R)-1-{(R)-2-phenyipropylamino}propan-2-yl]isoquinoline-6-sulfonamide dihydrochloride, reference compound] |  |  |  |  | marked appearance change due to moisture absorption |  |  |  |  |  |
